Assay results from ChEMBL document CHEMBL3217588, “Discovery and activity profiling of thailandepsins A through F, potent histone deacetylase inhibitors, from Burkholderia thailandensis E264” (Medchemcomm, 2012).
pIC50: −log10 of the molar value.

Key:
Histone deacetylase 1 = Histone deacetylase 1 (Homo sapiens, UniProt Q13547); experiment: Inhibition of human recombinant HDAC1 after 1 hr by luminescence assay
Histone deacetylase 4 = Histone deacetylase 4 (Homo sapiens, UniProt P56524); experiment: Inhibition of human recombinant HDAC4 after 1 hr by luminescence assay
[1] = target: T1, Protein deacetylase HDAC6 (Homo sapiens, UniProt Q9UBN7); experiment: Inhibition of human recombinant HDAC6 after 1 hr by luminescence assay
T1 sequence (Q9UBN7 whole entry): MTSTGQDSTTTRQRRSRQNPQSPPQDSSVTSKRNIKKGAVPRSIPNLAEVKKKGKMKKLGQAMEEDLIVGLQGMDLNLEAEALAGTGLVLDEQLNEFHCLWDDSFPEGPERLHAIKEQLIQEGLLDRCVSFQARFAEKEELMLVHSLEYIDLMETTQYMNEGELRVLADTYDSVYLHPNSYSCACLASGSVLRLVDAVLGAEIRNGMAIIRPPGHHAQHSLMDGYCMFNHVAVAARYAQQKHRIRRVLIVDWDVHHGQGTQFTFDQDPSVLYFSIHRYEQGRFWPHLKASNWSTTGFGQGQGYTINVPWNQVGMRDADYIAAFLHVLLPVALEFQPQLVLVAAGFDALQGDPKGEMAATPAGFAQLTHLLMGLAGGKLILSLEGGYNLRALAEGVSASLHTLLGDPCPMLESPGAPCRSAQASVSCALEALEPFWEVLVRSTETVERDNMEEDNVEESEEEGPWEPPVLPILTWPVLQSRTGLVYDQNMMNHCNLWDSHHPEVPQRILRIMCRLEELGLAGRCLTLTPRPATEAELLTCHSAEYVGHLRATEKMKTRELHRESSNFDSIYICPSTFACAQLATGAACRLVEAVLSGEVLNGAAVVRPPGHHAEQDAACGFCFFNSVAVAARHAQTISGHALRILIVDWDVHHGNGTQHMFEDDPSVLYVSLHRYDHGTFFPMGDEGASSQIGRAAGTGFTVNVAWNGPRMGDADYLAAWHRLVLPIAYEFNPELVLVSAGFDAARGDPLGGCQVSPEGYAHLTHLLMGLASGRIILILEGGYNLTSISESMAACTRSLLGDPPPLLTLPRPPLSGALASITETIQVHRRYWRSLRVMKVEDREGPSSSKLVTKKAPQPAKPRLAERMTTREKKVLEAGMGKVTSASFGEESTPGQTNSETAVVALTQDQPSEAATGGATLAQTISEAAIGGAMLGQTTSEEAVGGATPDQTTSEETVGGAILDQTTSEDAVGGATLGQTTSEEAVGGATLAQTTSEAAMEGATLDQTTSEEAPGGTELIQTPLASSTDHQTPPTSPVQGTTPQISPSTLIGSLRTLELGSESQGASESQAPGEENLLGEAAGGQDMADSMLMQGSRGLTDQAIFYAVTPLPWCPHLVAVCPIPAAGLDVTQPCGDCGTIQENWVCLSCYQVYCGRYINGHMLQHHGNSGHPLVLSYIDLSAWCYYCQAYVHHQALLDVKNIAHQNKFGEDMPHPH

Chain of Histone deacetylase 1 (Q13547 whole entry): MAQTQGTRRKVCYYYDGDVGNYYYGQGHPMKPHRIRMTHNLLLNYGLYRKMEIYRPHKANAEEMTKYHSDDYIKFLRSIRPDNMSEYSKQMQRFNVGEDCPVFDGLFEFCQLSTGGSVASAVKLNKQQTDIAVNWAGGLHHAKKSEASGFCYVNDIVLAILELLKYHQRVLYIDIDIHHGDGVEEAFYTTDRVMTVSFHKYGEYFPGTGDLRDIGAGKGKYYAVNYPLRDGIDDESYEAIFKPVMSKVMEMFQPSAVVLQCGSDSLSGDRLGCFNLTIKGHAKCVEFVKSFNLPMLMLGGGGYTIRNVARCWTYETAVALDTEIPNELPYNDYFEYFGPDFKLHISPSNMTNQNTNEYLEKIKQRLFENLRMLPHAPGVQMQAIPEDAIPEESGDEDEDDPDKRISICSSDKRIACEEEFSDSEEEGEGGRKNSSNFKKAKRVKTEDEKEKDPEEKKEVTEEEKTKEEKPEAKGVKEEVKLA
Chain of Histone deacetylase 4 (P56524 whole entry): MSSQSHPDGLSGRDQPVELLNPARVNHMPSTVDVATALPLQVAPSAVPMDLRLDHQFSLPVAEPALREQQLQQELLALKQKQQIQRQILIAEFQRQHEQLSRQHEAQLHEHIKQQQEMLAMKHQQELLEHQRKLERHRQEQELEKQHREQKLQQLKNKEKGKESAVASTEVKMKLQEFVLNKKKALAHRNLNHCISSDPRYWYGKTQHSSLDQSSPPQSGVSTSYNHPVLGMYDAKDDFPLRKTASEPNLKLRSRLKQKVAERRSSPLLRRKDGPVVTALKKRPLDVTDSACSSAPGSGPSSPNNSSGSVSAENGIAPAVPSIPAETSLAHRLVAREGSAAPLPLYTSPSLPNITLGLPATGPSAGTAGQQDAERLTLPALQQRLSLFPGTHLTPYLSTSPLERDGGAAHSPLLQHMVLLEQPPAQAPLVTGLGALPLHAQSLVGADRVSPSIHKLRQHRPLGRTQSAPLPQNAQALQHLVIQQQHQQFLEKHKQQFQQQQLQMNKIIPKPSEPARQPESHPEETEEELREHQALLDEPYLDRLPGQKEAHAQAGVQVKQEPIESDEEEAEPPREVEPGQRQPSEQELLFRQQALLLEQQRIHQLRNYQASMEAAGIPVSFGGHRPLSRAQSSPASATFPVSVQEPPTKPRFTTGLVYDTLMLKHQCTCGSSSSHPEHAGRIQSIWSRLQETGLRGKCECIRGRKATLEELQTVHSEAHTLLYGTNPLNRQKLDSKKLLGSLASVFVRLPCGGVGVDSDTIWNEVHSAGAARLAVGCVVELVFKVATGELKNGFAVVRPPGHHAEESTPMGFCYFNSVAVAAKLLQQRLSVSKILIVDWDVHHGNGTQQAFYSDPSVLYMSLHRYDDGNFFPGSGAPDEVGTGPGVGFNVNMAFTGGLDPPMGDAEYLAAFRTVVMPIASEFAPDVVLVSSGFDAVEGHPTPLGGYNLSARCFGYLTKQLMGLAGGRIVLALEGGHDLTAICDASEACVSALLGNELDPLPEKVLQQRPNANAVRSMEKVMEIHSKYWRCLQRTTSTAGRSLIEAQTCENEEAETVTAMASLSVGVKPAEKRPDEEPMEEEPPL

CCCC[C@H]1NC(=O)C[C@H]2/C=C/CCSSC[C@@H](NC1=O)C(=O)N[C@H](C(C)C)[C@@H](O)CC(=O)O2
pIC50 (Histone deacetylase 1): 9.32
pIC50 (Histone deacetylase 4): 4.33
pIC50 [1]: 6.03

CCCC[C@H]1NC(=O)C[C@H]2/C=C/CCSSC[C@@H](NC1=O)C(=O)N[C@H]([C@@H](C)CC)[C@@H](O)CC(=O)O2 [THAILANDEPSIN B]
pIC50 (Histone deacetylase 1): 8.92
pIC50 (Histone deacetylase 4): 4.24
pIC50 [1]: 5.92

CC[C@H](C)[C@H]1NC(=O)[C@H]2CSSCC/C=C/[C@H](CC(=O)N[C@H](CCSC)C(=O)N2)OC(=O)C[C@@H]1O [THAILANDEPSIN A]
pIC50 (Histone deacetylase 1): 9.55
pIC50 (Histone deacetylase 4): 4.43
pIC50 [1]: 6.08

CCCC[C@H]1NC(=O)C[C@H]2/C=C/CCSSC[C@@H](NC1=O)C(=O)N[C@H](CC(C)C)[C@@H](O)CC(=O)O2
pIC50 (Histone deacetylase 1): 8.59
pIC50 (Histone deacetylase 4): 3.88
pIC50 [1]: 5.72

C/C=C1\NC(=O)[C@H]2CSSCC/C=C/[C@H](CC(=O)N[C@H](C(C)C)C(=O)N2)OC(=O)[C@H](C(C)C)NC1=O [ROMIDEPSIN]
pIC50 (Histone deacetylase 4): 5.06

CSCC[C@H]1NC(=O)C[C@H]2/C=C/CCSSC[C@@H](NC1=O)C(=O)N[C@H](CC(C)C)[C@@H](O)CC(=O)O2
pIC50 (Histone deacetylase 1): 9.03
pIC50 (Histone deacetylase 4): 4.23
pIC50 [1]: 5.77

CSCC[C@H]1NC(=O)C[C@H]2/C=C/CCSSC[C@@H](NC1=O)C(=O)N[C@H](C(C)C)[C@@H](O)CC(=O)O2
pIC50 (Histone deacetylase 1): 9.70
pIC50 (Histone deacetylase 4): 4.42
pIC50 [1]: 6.11
